Where two headings read alike, the source gives them in different places.
Experiments:
pKa = type: physicochemical
logP = type: physicochemical
logD (pH7.4) = type: physicochemical
aqueous solubility = type: physicochemical
moisture sensitivity = type: physicochemical
[1] = known drug, background; cited from earlier work
[2] = known drug, background; cited from earlier work; remark: listed apart in the source
[3] = known drug, background; cited from earlier work; remark: listed apart in the source

pKa (pKa) | logP (logP) | logD (pH7.4) (logD (pH7.4)) | aqueous solubility (aqueous solubility; at about 37° C.) [µg/mL] | aqueous solubility of the free acid form (aqueous solubility; free acid form, pH 1.0-7.4) [µg/mL] | moisture sensitivity (moisture sensitivity) | SMILES | pKa [1] | logP [2] | logD (pH7.4) [3]
about 3.3 | about 2.5 | about −1.6 | < 100 | < 100 | moisture sensitive | CNc1cc2[nH]c(=O)n(-c3ccc(NC(=O)NS(=O)(=O)c4ccc(Cl)s4)cc3)c(=O)c2cc1F.[K] [Compound 1, [4-(6-fluoro-7-methylamino-2,4-dioxo-1,4-dihydro-2H-quinazolin-3-yl)-phenyl]-5-chloro-thiophen-2-yl-sulfonylurea potassium salt] | – | – | –
– | – | – | – | – | – | CC(C(=O)O)c1cccc(C(=O)c2ccccc2)c1 (racemic) [Ketoprofen, (RS)-2-(3-benzoylphenyl)propanoic acid] | about 5.94 | about 0.97 | about 1.34
– | – | – | – | – | – | COc1ccc2c(c1)c(CC(=O)O)c(C)n2C(=O)c1ccc(Cl)cc1 [Indomethacin] | – | about 3.8 | about 0.30

Source: patent US20130172374A1, “SOLID COMPOSITION FOR CONTROLLED RELEASE OF IONIZABLE ACTIVE AGENTS WITH POOR AQUEOUS SOLUBILITY AT LOW PH AND METHODS OF USE THEREOF” (Portola Pharmaceuticals, Inc., priority 2008, published 2013)
